The viability, T/C is the result in the treated group divided by that in the control group, in per cent. Broadly, the IC50 is the concentration at which inhibition is half-maximal.

“And” between values parts separate entries of the source, which are not always exact repeats. Equal entries are not always repeated.

The subject of the assay is 699152-130-R-J1-PDC complex spheroid viability. The assay can be described thus: Anticancer human tumor 699152-130-R-J1-PDC patient-derived pancreatic carcinoma cell line growth inhibition [POLQ]. The conditions noted are these: for viability, T/C: stronger effect = lower value. How it is done: Multicellular complex tumor spheroid response to Polymerase (POL) inhibitors (novobiocin, ART-558, RP6685) in combination with a variety of drugs and investigational agents in selected tumor cell lines
The POL inhibitors (novobiocin, ART-558, and RP6685) were evaluated both individually and in combination with standard of care and investigational anticancer small molecules within a complex spheroid model of solid tumors. . Complex spheroids include a stromal component modeled by human endothelial cells (HUVEC) and fibroblasts modeled by human mesenchymal stem cells (MSCs). The concentration ranges selected for each drug and investigational agent were based upon clinically achievable concentrations if the clinical Cmax of the agent was known.
Compounds. The drugs and investigational agents: novobiocin (NSC847541), ART-558 (NSC835418), RP-6685 (NSC848927), peposertib (NSC802822), ceralasertib (NSC780249), elimusertib (NSC800525), camonsertib (NSC841442), AZD-1390 (NSC803789), olaparib (NSC753686), talazoparib (NSC767125), rucaparib (NSC756644), sotorasib (NSC818433), MRTX-1133 (NSC836407), SN-38 (NSC673596), topotecan (NSC609699), epotoside (NSC141540), doxorubicin (NSC123127), gemcitabine (NSC613327), 5-fluorouracil (NSC19893), paclitaxel (NSC125973), vemurafenib (NSC761431), MSA-2 (NSC828583), SN-011 (NSC837082), adavosertib (NSC754352), prexasertib (NSC758257), carboplatin (NSC241240) and oxaliplatin (NSC266046), were obtained from the National Cancer Institute (NCI) Developmental Therapeutics Program Chemical Repository (21). The FDA-approved anticancer drug set is available from the Developmental Therapeutics Program at https://dtp.cancer.gov/organization/dscb/obtaining/. […] The stock solutions were prepared in dimethyl sulfoxide (DMSO, Sigma-Aldrich, St. Louis, MO, cat. D2650), except for the platinum compounds which were prepared in saline (Quality Biological, Gaithersburg, MD, cat. 114-055-101), at 800-fold the tested concentration and stored at -70 degrees C prior to their use. All drugs and investigational agents were tested over a range starting from a high concentration at or near the clinical Cmax and decreasing in half-log increments. If the clinical Cmax for an agent had not been determined, the highest concentration tested was 10 microM, except for SN-38, which was tested at a high concentration of 1 microM.
Cell Culture. All cells were maintained in an incubator at 37 degrees C and 5% CO2 with 95% humidity. The PDC lines were cultured according to standard operating procedures established by the NCI PDMR (https://pdmr.cancer.gov). Table 3 of the manuscript, lists the cell lines along with the number of the three cell types plated to form the mct-spheroids and media for tumor cell growth. After thawing, all PDC lines, except 997537-175-T-J1-PDC and 415267-285-R-J2-PDC, were cultured in Matrigel-coated flasks prepared with a working solution of 1X Ham's F-12 nutrient mix, without supplementation (Thermo Fisher Scientific, cat. 11765054), 100 U/mL penicillin-streptomycin (Thermo Fisher Scientific, cat. 15140122), and 2.5% Matrigel (Corning Inc., Corning, NY, cat. 354248) for the first three passages. The two PDC lines 997537-175-T-J1-PDC and 415267-285-R-J2-PDC were cultured on uncoated flasks. The 857933-349-R-J2-PDC line was cultured in 6C/Colon 1B media containing advanced DMEM/F-12 (Thermo Fisher Scientific, cat. 12634028), 10 mM HEPES (Thermo Fisher Scientific, cat. 15630080), 1X GlutaMAX supplement (Thermo Fisher Scientific, cat. 35050061), 0.1 mg/mL primocin (InvivoGen, San Diego, CA, cat. ant-pm-2), 10% defined fetal bovine serum, heat inactivated (HyClone Laboratories Inc., Logan, UT, cat. SH30070.03HI), 50% L-WRN conditioned media (ATCC, cat. CRL-3276), 1.25 mM N-Acetyl-L-cysteine (Sigma-Aldrich, cat. A9165), 10 mM nicotinamide (Sigma-Aldrich, cat. N0636), 1X B-27 supplement (Thermo Fisher Scientific, cat. 17504044), 1X N-2 supplement (Thermo Fisher Scientific, cat. […]

Where [1] appears, read: curve of first compound, second compound 0.0316 µM.
Setting [2] is: curve of first compound, second compound 0.1 µM.
The mark [3] stands for this setting: curve of first compound, second compound 0.316 µM.
[4] abbreviates: curve of first compound, second compound 1 µM.
The mark [5] stands for this setting: curve of first compound, second compound 3.16 µM.
Setting [6] is: curve of first compound, second compound 10 µM.
Where [7] appears, read: second compound 0.0316 µM, first compound 0.0316 µM.
[8] abbreviates: second compound 0.0316 µM, first compound 0.1 µM.
Where [9] appears, read: second compound 0.0316 µM, first compound 0.316 µM.
Setting [10] is: second compound 0.0316 µM, first compound 1 µM.
Setting [11] is: second compound 0.0316 µM, first compound 3.16 µM.
The mark [12] stands for this setting: second compound 0.0316 µM, first compound 10 µM.
[13] abbreviates: second compound 0.1 µM, first compound 0.0316 µM.
[14] abbreviates: second compound 0.1 µM, first compound 0.1 µM.
Where [15] appears, read: second compound 0.1 µM, first compound 0.316 µM.
[16] abbreviates: second compound 0.1 µM, first compound 1 µM.
Setting [17] is: second compound 0.1 µM, first compound 3.16 µM.
Setting [18] is: second compound 0.1 µM, first compound 10 µM.
[19] abbreviates: second compound 0.316 µM, first compound 0.0316 µM.
Where [20] appears, read: second compound 0.316 µM, first compound 0.1 µM.
Setting [21] is: second compound 0.316 µM, first compound 0.316 µM.
[22] abbreviates: second compound 0.316 µM, first compound 1 µM.
Setting [23] is: second compound 0.316 µM, first compound 3.16 µM.
Setting [24] is: second compound 0.316 µM, first compound 10 µM.
Setting [25] is: second compound 1 µM, first compound 0.0316 µM.
Where [26] appears, read: second compound 1 µM, first compound 0.1 µM.
[27] abbreviates: second compound 1 µM, first compound 0.316 µM.
Setting [28] is: second compound 1 µM, first compound 1 µM.
[29] abbreviates: second compound 1 µM, first compound 3.16 µM.
The mark [30] stands for this setting: second compound 1 µM, first compound 10 µM.
[31] abbreviates: second compound 3.16 µM, first compound 0.0316 µM.
[32] abbreviates: second compound 3.16 µM, first compound 0.1 µM.
Where [33] appears, read: second compound 3.16 µM, first compound 0.316 µM.
Setting [34] is: second compound 3.16 µM, first compound 1 µM.
[35] abbreviates: second compound 3.16 µM, first compound 3.16 µM.
Where [36] appears, read: second compound 3.16 µM, first compound 10 µM.
Where [37] appears, read: second compound 10 µM, first compound 0.0316 µM.
Setting [38] is: second compound 10 µM, first compound 0.1 µM.
Where [39] appears, read: second compound 10 µM, first compound 0.316 µM.
[40] abbreviates: second compound 10 µM, first compound 1 µM.
Setting [41] is: second compound 10 µM, first compound 3.16 µM.
The mark [42] stands for this setting: second compound 10 µM, first compound 10 µM.
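Further: spheroids exposed to agents for 7 days before viability reading.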
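Wherever viability, T/C is given: percent of DMSO vehicle control viability so 100% = vehicle and 0% = no viable signal.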

Turning to `COc1cc(C2c3cc4c(cc3C(OC3OC5COC(C)OC5C(O)C3O)C3COC(=O)C23)OCO4)cc(OC)c1O` (configuration not stated), the viability, T/C is, setting by setting: (compound 0.0316 µM) 105% and 94.4% and 87.1%; (compound 0.1 µM) 90.3% and 87% and 86.1%; (compound 0.316 µM) 76.8% and 81.6% and 71.8%; (compound 1 µM) 73.7% and 79.2% and 62.8%; (compound 3.16 µM) 59.8% and 63.5% and 52.7%; (compound 10 µM) 53.1% and 44% and 40.2%. For the same compound, the IC50 (curve of compound) was > 10 µM and 7.19 µM and 3.71 µM.
Consider `O=C(c1cc(Cc2n[nH]c(=O)c3ccccc23)ccc1F)N1CCN(C(=O)C2CC2)CC1`, for which the viability, T/C is, setting by setting: (compound 0.0316 µM) 101% and 104% and 103%; (compound 0.1 µM) 99.6% and 92.1% and 91.6%; (compound 0.316 µM) 100% and 98% and 95.9%; (compound 1 µM) 93.5% and 90.7% and 103%; (compound 3.16 µM) 91.4% and 87.8% and 91.5%; (compound 10 µM) 71.4% and 59.8% and 88.3%. The IC50 (curve of compound) was above 10 µM.
As to `O=c1[nH]cc(F)c(=O)[nH]1`, the viability, T/C (compound 0.0316 µM) was 91.8% and 111% and 102%; the viability, T/C (compound 0.1 µM) is 130% and 91.7% and 100%; the viability, T/C (compound 0.316 µM) was 96.3% and 108% and 117%; the viability, T/C (compound 1 µM) is 101% and 114% and 94%; the viability, T/C (compound 3.16 µM) is 108% and 92.4% and 91%; the viability, T/C (compound 10 µM) is 70.4% and 70.2% and 62.4%. Also, where the note is “curve of compound”, the 50% inhibitory concentration (IC50) was above 10 µM.
Consider `CCCS(=O)(=O)Nc1ccc(F)c(C(=O)c2c[nH]c3ncc(-c4ccc(Cl)cc4)cc23)c1F` + Nc1ccc(C#CCN(C(=O)Cc2ncc(C(F)(F)F)cc2C(F)(F)F)c2ccc(F)cc2)nn1, for which the IC50 is 8.52 µM under setting [1]; 8.88 µM under setting [2]; 8.62 µM under setting [3]; 8.35 µM under setting [4]; 9.38 µM under setting [5]; above 10 µM under setting [6]. In addition, the viability, T/C is, setting by setting: under setting [7], 101%; under setting [8], 113%; under setting [9], 118%; under setting [10], 167%; under setting [11], 167%; under setting [12], 36.3%. The viability, T/C was 109% under setting [13]; 117% under setting [14]; 119% under setting [15]; 143% under setting [16]; 188% under setting [17]; 40% under setting [18]. Moreover, the viability, T/C reads like this: under setting [19], 111%; under setting [20], 113%; under setting [21], 132%; under setting [22], 175%; under setting [23], 184%; under setting [24], 36.2%. Also, the viability, T/C by setting is: under setting [25], 96.2%; under setting [26], 116%; under setting [27], 119%; under setting [28], 133%; under setting [29], 166%; under setting [30], 35.8%. For the same compound, the viability, T/C runs as follows: under setting [31], 114%; under setting [32], 123%; under setting [33], 124%; under setting [34], 163%; under setting [35], 179%; under setting [36], 44.5%. Besides, the viability, T/C is 124% under setting [37]; 128% under setting [38]; 131% under setting [39]; 161% under setting [40]; 192% under setting [41]; 52.9% under setting [42].
With `O=c1[nH]cc(F)c(=O)[nH]1` + Nc1ccc(C#CCN(C(=O)Cc2ncc(C(F)(F)F)cc2C(F)(F)F)c2ccc(F)cc2)nn1, the 50% inhibitory concentration (IC50) is, setting by setting: under setting [1], above 10 µM; under setting [2], above 10 µM; under setting [3], above 10 µM; under setting [4], above 10 µM; under setting [5], above 10 µM; under setting [6], above 10 µM. For the same compound, the viability, T/C is 105% under setting [7]; 105% under setting [8]; 99.3% under setting [9]; 97.9% under setting [10]; 98.1% under setting [11]; 82.1% under setting [12]. Further, the viability, T/C by setting is: under setting [13], 100%; under setting [14], 121%; under setting [15], 104%; under setting [16], 88.7%; under setting [17], 97.3%; under setting [18], 76.9%. The viability, T/C is, setting by setting: under setting [19], 108%; under setting [20], 104%; under setting [21], 103%; under setting [22], 102%; under setting [23], 97.5%; under setting [24], 81.5%. The viability, T/C runs as follows: under setting [25], 113%; under setting [26], 95.5%; under setting [27], 97.6%; under setting [28], 103%; under setting [29], 87.8%; under setting [30], 75.9%. The viability, T/C under setting [31] was 111%; the viability, T/C under setting [32] was 104%; the viability, T/C under setting [33] was 93.9%; the viability, T/C under setting [34] is 95.6%; the viability, T/C under setting [35] is 104%; the viability, T/C under setting [36] was 88.4%. Also, the viability, T/C is 116% under setting [37]; 110% under setting [38]; 119% under setting [39]; 105% under setting [40]; 105% under setting [41]; 87.7% under setting [42].
Consider `O=C(Nc1ccc(O)c(NS(=O)(=O)c2ccc(F)cc2)c1)c1ccc(-c2ccccc2)cc1`, for which the viability, T/C (compound 0.0316 µM) was 114% and 90.3% and 92.6%; the viability, T/C (compound 0.1 µM) is 104% and 94.2% and 112%; the viability, T/C (compound 0.316 µM) was 101% and 103% (2×); the viability, T/C (compound 1 µM) is 102% and 109% and 107%; the viability, T/C (compound 3.16 µM) is 106% and 108% and 112%; the viability, T/C (compound 10 µM) was 71.6% and 70% and 81.6%. The IC50 (curve of compound) is above 10 µM.

Source of the values: PubChem BioAssay AID1963835 (Molecular Pharmacology Branch, DTP, NCI, 2024).
